3 compounds from patent US20180258100A1, “RAPAMYCIN ANALOGS SHOWING IMPROVED mTORC1 SPECIFICITY” (priority 2015, published 2018) can be followed below.

Series [1] can be described thus: Plasma lipid levels after chronic i.p. dosing. In kind it is in vivo, female C57BL/6J mice. To be noted: rapamycin 8 mg/kg, compound 390 12 mg/kg i.p. every other day; versus vehicle. Here is the method: (§1) 10-week old female C57BL/6J mice were given intraperitoneal injections of 8 mg/kg rapamycin (LC laboratories), 12 mg/kg compound 390 or vehicle every other day for three weeks (N=5 mice/group), such as to mimic chronic exposure conditions. 24 hours after the last injection, tissues were dissected from the mice and immediately frozen in liquid nitrogen. The tissues were homogenized using the Omni TH homogenizer (Omni International) on ice in RIPA buffer and then centrifuged at 13,000 rpm for 15 minutes at 4° C. The supernatants were collected and protein concentration was determined using the DC protein assay (Biorad).
Plasma lipid levels were determined at the end of the three-week exposure. Free fatty acids in the serum were measured by the HR Series NEFA-HR(2) (Wako Diagnostics, Richmond, Va.). Triglycerides and cholesterol in serum were measured by Triglycerides Liquicolor Test and Cholesterol Liquicolor Test (Stanbio laboratory, Boerne, Tex.), respectively.

Series [2] can be described thus: Glucose challenge response. In kind it is in vivo, female C57BL/6J mice. Particulars: 2 mg/kg glucose after 1 week; rapamycin 8 mg/kg, compound 390 12 mg/kg i.p. every other day. As to the method:
as §1
Steady state glucose levels were determined after one week from study initiation using a Bayer Contour blood glucose meter and test strips from small blood samples, which were withdrawn from a tail vein nick. […]

The nature of series [3]: Fat mass by EchoMRI body composition after four weeks. In kind it is in vivo, male C57BL/6J mice. Particulars: 4 weeks of every other day administration; rapamycin 8 mg/kg, compound 390 12 mg/kg; versus vehicle. As to the method:
Fortyfive C57BL/6J male mice, housed three per cage, were weighed and their body composition was measured with an EchoMRI 3-in-1 system. Cages were sorted into three groups—vehicle, rapamycin, and compound 390—such that the average weight was similar for all three groups. Mice received every-other-day injections of either vehicle, rapamycin (8 mg/kg), or compound 390 (12 mg/kg). A glucose tolerance test was performed after 2 weeks (morning after the 8th injection). A pyruvate tolerance test was performed after 3 weeks. Glucose stimulated insulin secretion assay was performed after 4 weeks and additional blood was collected for whole blood analysis. Body composition was measured on day −2 and day 31.

The nature of series [4]: Steady state glucose levels after one week of i.p. dosing. The series is classed as in vivo, female C57BL/6J mice. Particulars: 8 mg/kg i.p. every other day. As to the method:
as §1
Steady state glucose levels were determined after one week from study initiation using a Bayer Contour blood glucose meter and test strips from small blood samples, which were withdrawn from a tail vein nick. At the end of the second week, the animals were challenged by administration of 2 mg/kg glucose; glucose levels were determined for two hours following the challenge at 30 min intervals.

A short description of series [5]: Glucose tolerance test after 2 weeks of chronic dosing. In kind it is in vivo, male C57BL/6J mice. To be noted: rapamycin 8 mg/kg, compound 390 12 mg/kg every other day, male mice. As to the method: Fortyfive C57BL/6J male mice, housed three per cage, were weighed and their body composition was measured with an EchoMRI 3-in-1 system. […] Mice received every-other-day injections of either vehicle, rapamycin (8 mg/kg), or compound 390 (12 mg/kg). A glucose tolerance test was performed after 2 weeks (morning after the 8th injection). A pyruvate tolerance test was performed after 3 weeks. Glucose stimulated insulin secretion assay was performed after 4 weeks and additional blood was collected for whole blood analysis. Body composition was measured on day −2 and day 31.
Mice were fasted overnight for 16 hours and then injected with either glucose (1 g/kg) or pyruvate (2 g/kg) intraperitoneally. For glucose and pyruvate tolerance tests, small blood samples were taken from a tail vein nick at time intervals and read using a Bayer Contour blood glucose meter and test strips. For glucose-stimulated insulin secretion, blood glucose levels were read using a glucometer and then 50 μL of blood was collected into a heparinized tube immediately prior to and 15 minutes following glucose administration. Insulin levels were determined using a Mouse Insulin ELISA kit (Crystal Chem).

The target of series [6] is T1, mTORC2 (Homo sapiens, UniProt P42345+P62942).
T1 construct: endogenous in cells; host or cells: PC3 cells
T1 sequence (P62942 2-108 limits assumed, other chains not shown): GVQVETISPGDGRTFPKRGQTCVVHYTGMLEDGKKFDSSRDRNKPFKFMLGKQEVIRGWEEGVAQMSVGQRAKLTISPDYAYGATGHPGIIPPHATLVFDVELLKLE
Briefly: Western blot of PC3 cells, 24 h at 100 nM, comparison with commercial rapalogs, mTORC2 (p-Akt). In kind it is cell-based. Particulars: PC-3, read-out: mTORC2 (p-Akt) activity, % of control. Here is the method:
(§2) PC3 cells were maintained in F12K media supplemented with 10% FBS, 1% Penicillin/Streptomycin, and 2 mM L-Glutamine and cultured at 37° C. Cells were treated with 100 nM Rapamycin, Temsirolimus, Everolimus, and rapalog compounds 390, 394, 824, 384 or 405 for 24 h and harvested in RIPA buffer (300 mM NaCl, 1.0% NP-40, 0.5% sodium deoxycholate, 0.1% SDS, 50 mM Tris pH 8.0. Protein concentrations were determined using the DC protein assay (Biorad).
(§3) Equal amounts of protein were resolved by SDS-PAGE and transferred to nitrocellulose membrane using the Invitrogen Nu-Page system. The membranes were blocked for 1 h in 5% milk and incubated overnight in the appropriate antibodies. The following day, blots were washed 3 times in TBST, incubated for 2 h with secondary antibodies (donkey anti rabbit hrp conjugated), and finally washed an additional 3 times in TBST. ECL Prime (Amersham) was used to detect the proteins of interest and blots were quantified using ImageJ software.
For orientation: In western blotting, separated proteins are transferred to a membrane and probed.

Series [7] can be described thus: Insulin challenge response. The series is classed as in vivo, female C57BL/6J mice. Particulars: 0.75 IU/kg insulin after 2 weeks; rapamycin 8 mg/kg, compound 390 12 mg/kg i.p. every other day. As to the method:
FIG. 10. Response to insulin challenge following administration of 0.75 IU/kg insulin at t=2 weeks following the initiation of the intraperitoneal administrations of 8 mg/kg rapamycin, 12 mg/kg compound 390 or vehicle control every other day in female mice (N=5).
as §1

For series [8], the target named is T2, mTORC1 (Homo sapiens, UniProt P42345+P62942).
T2 construct: endogenous in cells; host or cells: PC3 cells
Put plainly: Western blot of PC3 cells, 24 h at 100 nM, comparison with commercial rapalogs, mTORC1 (p-S6K). In kind it is cell-based. As to the method: as §2, §3

Molecules are shown by their SMILES.

Consider `CO[C@H]1C[C@@H]2CC[C@@H](C)[C@@](O)(O2)C(=O)C(=O)N2CCCC[C@H]2C(=O)O[C@H]([C@H](C)C[C@@H]2CC[C@@H](O)[C@H](OC)C2)CC(=O)[C@H](C)/C=C(\C)[C@@H](O)[C@@H](OC)C(=O)[C@H](C)C[C@H](C)/C=C/C=C/C=C/1C` [Rapamycin], for which the “plasma free fatty acids” value in series [1] is “substantial and statistically significant increase”. The “glucose response after glucose challenge (glucose intolerance)” value in series [2] is given as “deviates significantly from the response observed with the control animals”. Moreover, the “fat mass (adiposity)” value in series [3] is listed as “statistically significant increase of fat mass”. Moreover, in series [4], the “glucose steady state level” value is about 75 mg/dL, the “increase of glucose steady state level from baseline” value was “approx. 55%” and the “increase of glucose steady state level versus vehicle-receiving animals” value amounted to 3 fold. Also, in series [5] (after 2 weeks), the glucose tolerance test entry was “impaired glucose and pyruvate tolerance tests”. Further, the fasting hyperglycemia entry in series [5] (chronic dosing) was “induced”. Besides, the remaining activity at 0.1 µM in series [6] is about 5%. Moreover, the “glucose response after insulin challenge (insulin resistance)” value in series [7] was “deviates significantly from the response observed with the control animals”.

`CO[C@H]1C[C@@H]2CC[C@@H](C)[C@@](O)(O2)C(=O)C(=O)N2CCCC[C@H]2C(=O)O[C@H]([C@H](C)C[C@@H]2CC[C@@H](OC(=O)C(C)(CO)CO)[C@H](OC)C2)CC(=O)[C@H](C)/C=C(\C)[C@@H](O)[C@@H](OC)C(=O)[C@H](C)C[C@H](C)/C=C/C=C/C=C/1C` [Temsirolimus]: the “mTORC1 (p-S6K) inhibition” value in series [8] is “performed identically to rapamycin”. Moreover, the remaining activity at 0.1 µM in series [6] is about 5%.

As for `CO[C@H]1C[C@@H]2CC[C@@H](C)[C@@](O)(O2)C(=O)C(=O)N2CCCC[C@H]2C(=O)O[C@H]([C@H](C)C[C@@H]2CC[C@@H](OCCO)[C@H](OC)C2)CC(=O)[C@H](C)/C=C(\C)[C@@H](O)[C@@H](OC)C(=O)[C@H](C)C[C@H](C)/C=C/C=C/C=C/1C` [Everolimus], the “mTORC1 (p-S6K) inhibition” value in series [8] is recorded as “performed identically to rapamycin”. The remaining activity at 0.1 µM in series [6] is about 5%.
